In patent US20130217702A1 (Richter Gedeon Nyrt., priority 2010, published 2013):

Legend:
[1] = target: T1, recombinant human B1 receptors (Homo sapiens, UniProt P46663); assay: Functional assay: antagonist potency by cytosolic calcium measurement (plate reader fluorimeter) in CHO-B1 cells, agonist LysDABK; format: cell-based; details: CHO-B1 cells, inhibition of LysDABK (EC80)-evoked [Ca2+]i elevation; read-out: B1 func.
T1 construct: host or cells: CHO (CHO-B1)
T1 sequence (P46663 1-353): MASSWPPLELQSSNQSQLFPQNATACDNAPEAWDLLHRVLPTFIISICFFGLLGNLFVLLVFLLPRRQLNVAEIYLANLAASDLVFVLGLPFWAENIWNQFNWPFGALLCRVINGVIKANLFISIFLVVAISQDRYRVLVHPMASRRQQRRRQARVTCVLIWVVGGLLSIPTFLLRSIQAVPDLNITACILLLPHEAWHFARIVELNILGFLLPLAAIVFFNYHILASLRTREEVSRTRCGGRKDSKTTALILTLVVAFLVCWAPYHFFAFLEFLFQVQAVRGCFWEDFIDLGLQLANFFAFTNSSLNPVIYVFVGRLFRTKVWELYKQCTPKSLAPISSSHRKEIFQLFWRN
Outline: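 IC50 is the concentration giving half-maximal inhibition of the LysDABK (EC80) calcium response, fitted from at least three experiments. CHO cells stably expressing human B1 were dye-loaded, exposed to compound for 20-25 min, then read by fluo-4 fluorescence (ΔF/F) at 37 °C.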

[2] = target: T2, human recombinant bradykinin B1 receptor (Homo sapiens, UniProt P46663); assay: Human recombinant bradykinin B1 receptor competitive radioligand binding; details: hB1 expressed in CHO cells, [3H]-[Des-Arg10] Kallidin radioligand; read-out: B1 binding
T2 construct: host or cells: CHO cells, clone hB1-A5
T2 sequence (P46663 1-353): T1 sequence (P46663 1-353)
Outline: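 Membranes from CHO cells expressing hB1 (20 μg protein/tube) incubated 15 min at 25° C. with [3,4-prolyl-3,4-^3H(N)]-[Des-Arg^10] Kallidin; nonspecific binding defined with 10 μM Lys-des-Arg^9-Bradykinin. Bound label collected by filtration and counted. IC50 from ≥7-point curves in triplicate; Ki by Cheng-Prusoff.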

Q: What does the source list for `Cc1nc(-c2c(Cl)c3ccccc3n2-c2ccc(CNC(=O)C3(NC(=O)c4ccc(F)c(C(F)(F)F)c4)CC3)cc2)no1` [Example 98, N-(1-{4-[3-Chloro-2-(5-methyl-[1,2,4]oxadiazol-3-yl)-indol-1-yl]-benzylcarbamoyl}-cyclopropyl)-4-fluoro-3-trifluoromethyl-benzamide]?
A: IC50 [1]: 20 to 100 nM; Ki [2]: < 20 nM

Q: What does the source list for `Cc1nc(-c2c(Cl)c3ccccc3n2-c2ccc(CNC(=O)C3(NC(=O)c4ccc(F)nc4)CC3)cc2)no1` [Example 99, N-(1-{4-[3-Chloro-2-(5-methyl-[1,2,4]oxadiazol-3-yl)-indol-1-yl]-benzylcarbamoyl}-cyclopropyl)-6-fluoro-nicotinamide]?
A: IC50 [1]: < 20 nM; Ki [2]: < 20 nM

Q: `N#Cc1cc2cc(Cl)ccc2n1-c1ccc(CNC(=O)C2(NC(=O)c3cncc(C(F)(F)F)c3)CC2)cc1` [Example 100, N-{1-[4-(5-Chloro-2-cyano-indol-1-yl)-benzylcarbamoyl]-cyclopropyl}-5-trifluoromethyl-nicotinamide] was tested. Which IC50 [1] did it give?
A: The IC50 was less than 20 nM.

Q: What about the Ki [2] of the same compound?
A: Its Ki is less than 20 nM.

Q: Which IC50 [1] does the source give for `Cc1noc(-c2cc3cc(F)ccc3n2-c2ccc(CNC(=O)C3(NC(=O)CC(F)(F)F)CC3)cc2)n1` [Example 101, 1-(3,3,3-Trifluoro-propionylamino)-cyclopropanecarboxylic acid 4-[5-fluoro-2-(3-methyl-[1,2,4]oxadiazol-5-yl)-indol-1-yl]-benzylamide] here?
A: The IC50 was less than 20 nM.

Q: And the Ki [2]?
A: Its Ki is less than 20 nM.

Q: Which results are given for `Cc1noc(-c2cc3cc(F)ccc3n2-c2ccc(CNC(=O)C3(NC(=O)c4cncc(C(F)(F)F)c4)CC3)cc2)n1` [Example 102, N-(1-{4-[5-Fluoro-2-(3-methyl-[1,2,4]oxadiazol-5-yl)-indol-1-yl]-benzylcarbamoyl}-cyclopropyl)-5-trifluoromethyl-nicotinamide]?
A: IC50 [1]: < 20 nM; Ki [2]: < 20 nM

Q: For `COc1cc(C(=O)NC2(C(=O)NCc3ccc(-n4c(-c5nc(C)no5)cc5cc(F)ccc54)cc3)CC2)on1` [Example 103, 3-Methoxy-isoxazole-5-carboxylic acid (1-{4-[5-fluoro-2-(3-methyl-[1,2,4]oxadiazol-5-yl)-indol-1-yl]-benzylcarbamoyl}-cyclopropyl)-amide], which IC50 [1] is on record?
A: The IC50 was less than 20 nM.

Q: And the Ki [2]?
A: The Ki was less than 20 nM.

Q: What does the source list for `Cc1nc(-c2c(Cl)c3ccccc3n2-c2ccc(CNC(=O)C3(NC(=O)c4cccnc4Cl)CC3)c(F)c2)no1` [Example 104, 2-Chloro-N-(1-{4-[3-chloro-2-(5-methyl-[1,2,4]oxadiazol-3-yl)-indol-1-yl]-2-fluoro-benzylcarbamoyl}-cyclopropyl)-nicotinamide]?
A: IC50 [1]: < 20 nM; Ki [2]: < 20 nM

Q: `Cc1nc(-c2c(Cl)c3ccccc3n2-c2ccc(CNC(=O)C3(NC(=O)c4cccc(F)c4)CC3)c(F)c2)no1` [Example 105, N-(1-{4-[3-Chloro-2-(5-methyl-[1,2,4]oxadiazol-3-yl)-indol-1-yl]-2-fluoro-benzylcarbamoyl}-cyclopropyl)-3-fluoro-benzamide] was tested. Which IC50 [1] did it give?
A: Its IC50 is less than 20 nM.

Q: And the Ki [2]?
A: The Ki was less than 20 nM.

Q: `Cc1cnc(C(=O)NC2(C(=O)NCc3ccc(-n4c(-c5noc(C)n5)c(Cl)c5ccccc54)cc3F)CC2)cn1` [Example 106, 5-Methyl-pyrazine-2-carboxylic acid (1-{4-[3-chloro-2-(5-methyl-[1,2,4]oxadiazol-3-yl)-indol-1-yl]-2-fluoro-benzylcarbamoyl}-cyclopropyl)-amide] was tested. Which IC50 [1] did it give?
A: The IC50 was less than 20 nM.

Q: What about the Ki [2] of the same compound?
A: The Ki was less than 20 nM.

Q: For `Cc1cc(C(=O)NC2(C(=O)NCc3ccc(-n4c(-c5noc(C)n5)c(Cl)c5ccccc54)cc3F)CC2)no1` [Example 107, 5-Methyl-isoxazole-3-carboxylic acid (1-{4-[3-chloro-2-(5-methyl-[1,2,4]oxadiazol-3-yl)-indol-1-yl]-2-fluoro-benzylcarbamoyl}-cyclopropyl)-amide], which IC50 [1] is on record?
A: Its IC50 is less than 20 nM.

Q: And the Ki [2]?
A: Its Ki is less than 20 nM.

Q: What does the source list for `Cc1nc(-c2c(Cl)c3ccccc3n2-c2ccc(CNC(=O)C3(NC(=O)CC(F)(F)F)CC3)c(F)c2)no1` [Example 108, 1-(3,3,3-Trifluoro-propionylamino)-cyclopropanecarboxylic acid 4-[3-chloro-2-(5-methyl-[1,2,4]oxadiazol-3-yl)-indol-1-yl]-2-fluoro-benzylamide]?
A: IC50 [1]: < 20 nM; Ki [2]: < 20 nM

Q: How did the IC50 [1] turn out when `Cc1nc(-c2c(Cl)c3ccccc3n2-c2ccc(CNC(=O)C3(NC(=O)c4ccnc(F)c4)CC3)c(F)c2)no1` [Example 109, N-(1-{4-[3-Chloro-2-(5-methyl-[1,2,4]oxadiazol-3-yl)-indol-1-yl]-2-fluoro-benzylcarbamoyl}-cyclopropyl)-2-fluoro-isonicotinamide] was run?
A: The IC50 was less than 20 nM.

Q: What about the Ki [2] of the same compound?
A: Its Ki is less than 20 nM.

Q: `Cc1nc(-c2c(Cl)c3ccccc3n2-c2ccc(CNC(=O)C3(NC(=O)c4cc(C5CC5)on4)CC3)c(F)c2)no1` [Example 110, 5-Cyclopropyl-isoxazole-3-carboxylic acid (1-{4-[3-chloro-2-(5-methyl-[1,2,4]oxadiazol-3-yl)-indol-1-yl]-2-fluoro-benzylcarbamoyl}-cyclopropyl)-amide] was tested. Which IC50 [1] did it give?
A: The IC50 was less than 20 nM.

Q: And the Ki [2]?
A: The Ki was less than 20 nM.

Q: Which results are given for `Cc1nc(-c2c(Cl)c3ccccc3n2-c2ccc(CNC(=O)C3(NC(=O)c4cncc(C(F)(F)F)c4)CC3)c(F)c2)no1` [Example 111, N-(1-{4-[3-Chloro-2-(5-methyl-[1,2,4]oxadiazol-3-yl)-indol-1-yl]-2-fluoro-benzylcarbamoyl}-cyclopropyl)-5-trifluoromethyl-nicotinamide]?
A: IC50 [1]: < 20 nM; Ki [2]: < 20 nM

Q: For `Cc1noc(-c2c(Cl)c3ccccc3n2-c2ccc(CNC(=O)C3(NC(=O)CC(F)(F)F)CC3)cc2)n1` [Example 112, 1-(3,3,3-Trifluoro-propionylamino)-cyclopropanecarboxylic acid 4-[3-chloro-2-(3-methyl-[1,2,4]oxadiazol-5-yl)-indol-1-yl]-benzylamide], which IC50 [1] is on record?
A: Its IC50 is less than 20 nM.

Q: What about the Ki [2] of the same compound?
A: Its Ki is less than 20 nM.

Q: Which results are given for `Cc1noc(-c2c(Cl)c3ccccc3n2-c2ccc(CNC(=O)C3(NC(=O)c4ccnc(F)c4)CC3)cc2)n1` [Example 113, N-(1-{4-[3-Chloro-2-(3-methyl-[1,2,4]oxadiazol-5-yl)-indol-1-yl]-benzylcarbamoyl}-cyclopropyl)-2-fluoro-isonicotinamide]?
A: IC50 [1]: < 20 nM; Ki [2]: < 20 nM

Q: Which IC50 [1] does the source give for `Cc1noc(-c2c(Cl)c3ccccc3n2-c2ccc(CNC(=O)C3(NC(=O)c4cc(C5CC5)on4)CC3)cc2)n1` [Example 114, 5-Cyclopropyl-isoxazole-3-carboxylic acid (1-{4-[3-chloro-2-(3-methyl-[1,2,4]oxadiazol-5-yl)-indol-1-yl]-benzylcarbamoyl}-cyclopropyl)-amide] here?
A: Its IC50 is less than 20 nM.

Q: And the Ki [2]?
A: Its Ki is less than 20 nM.

Q: Which IC50 [1] does the source give for `Cc1noc(-c2c(Cl)c3ccccc3n2-c2ccc(CNC(=O)C3(NC(=O)c4cncc(C(F)(F)F)c4)CC3)cc2)n1` [Example 115, N-(1-{4-[3-Chloro-2-(3-methyl-[1,2,4]oxadiazol-5-yl)-indol-1-yl]-benzylcarbamoyl}-cyclopropyl)-5-trifluoromethyl-nicotinamide] here?
A: The IC50 was less than 20 nM.

Q: What about the Ki [2] of the same compound?
A: The Ki was less than 20 nM.

Q: What does the source list for `COc1ccc2c(c1)cc(-c1nc(C)no1)n2-c1ccc(CNC(=O)C2(NC(=O)c3cccnc3F)CC2)cc1` [Example 116, 2-Fluoro-N-(1-{4-[5-methoxy-2-(3-methyl-[1,2,4]oxadiazol-5-yl)-indol-1-yl]-benzylcarbamoyl}-cyclopropyl)-nicotinamide]?
A: IC50 [1]: 20 to 100 nM; Ki [2]: 20 to 100 nM

Q: Which IC50 [1] does the source give for `Cc1nc(-c2c(Cl)c3cc(F)ccc3n2-c2ccc(CNC(=O)C3(NC(=O)c4cccnc4F)CC3)cc2)no1` [Example 117, N-(1-{4-[3-Chloro-5-fluoro-2-(5-methyl-[1,2,4]oxadiazol-3-yl)-indol-1-yl]-benzylcarbamoyl}-cyclopropyl)-2-fluoro-nicotinamide] here?
A: Its IC50 is less than 20 nM.

Q: What about the Ki [2] of the same compound?
A: Its Ki is less than 20 nM.

Q: What does the source list for `COc1ccc2c(c1)c(Cl)c(-c1nc(C)no1)n2-c1ccc(CNC(=O)C2(NC(=O)c3cccnc3F)CC2)cc1` [Example 118, N-(1-{4-[3-Chloro-5-methoxy-2-(3-methyl-[1,2,4]oxadiazol-5-yl)-indol-1-yl]-benzylcarbamoyl}-cyclopropyl)-2-fluoro-nicotinamide]?
A: IC50 [1]: < 20 nM; Ki [2]: < 20 nM

Q: `Cn1nnc(-c2c(Cl)c3ccccc3n2-c2ccc(CNC(=O)C3(NC(=O)c4cccnc4F)CC3)cc2)n1` [Example 119, N-(1-{4-[3-Chloro-2-(2-methyl-2H-tetrazol-5-yl)-indol-1-yl]-benzylcarbamoyl}-cyclopropyl)-2-fluoro-nicotinamide] was tested. Which IC50 [1] did it give?
A: The IC50 was less than 20 nM.

Q: What about the Ki [2] of the same compound?
A: Its Ki is less than 20 nM.

Q: What does the source list for `Cc1nc(-c2cc3cc(F)ccc3n2-c2ccc(CNC(=O)C3(NC(=O)c4cccnc4F)CC3)cc2)no1` [Example 120, 2-Fluoro-N-(1-{4-[5-fluoro-2-(5-methyl-[1,2,4]oxadiazol-3-yl)-indol-1-yl]-benzylcarbamoyl}-cyclopropyl)-nicotinamide]?
A: IC50 [1]: < 20 nM; Ki [2]: < 20 nM

Q: Which results are given for `Cc1nc(-c2c(Cl)c3ccccc3n2-c2ccc(CNC(=O)C3(NC(=O)c4cnn(C)c4)CC3)cc2)no1` [Example 121, 1-Methyl-1H-pyrazole-4-carboxylic acid (1-{4-[3-chloro-2-(5-methyl-[1,2,4]oxadiazol-3-yl)-indol-1-yl]-benzylcarbamoyl}-cyclopropyl)-amide]?
A: IC50 [1]: 20 to 100 nM; Ki [2]: < 20 nM
